Reference: US11690860B2, “Treatment of HCV infected patients with cirrhosis” (Atea Pharmaceuticals, Inc., priority 2018, dated 2023)
Entries after “also recorded” stand apart in the source; their conditions may differ. Read-outs that look alike come from different tables or passages of the source.

Assay: Plasma pharmacokinetics of Compound 1 and metabolite 1-7 (LC-MS/MS) in Parts C, D and E
Format: in vivo, human
Procedure: Doses were administered as the Compound 2 salt base. The free base Compound 1 equivalent is often given in parenthesis.
Part C was a randomized, double-blind, placebo-controlled MAD study divided into three cohorts. […] The dose escalation only proceeded following satisfactory review of the data.
HCV-infected patients were treatment-naïve with HCV RNA ≥5 log 10 IU/mL. HCV RNA was quantified using COBAS® AmpliPrep TaqMAN® v2.0 with LLQ of 15 IU/mL. Plasma drug levels were measured using LC-MS/MS. […] Cirrhosis was confirmed by prior liver biopsy or Fibroscan >12.5 kPa. […] Mean ages of enrolled subjects were 44, 39, and 56 years in the non-cirrhotic GT1b 600 mg dose cohort, non-cirrhotic GT3 cohort, and the cirrhotic cohort, respectively.
Plasma levels of metabolite 1-7 were measured using LC-MS/MS.

[1] = Part C, 150 to 600 mg Compound 2

C[C@@]1(F)[C@H](O)[C@@H](CO)O[C@H]1n1cnc2c(=O)[nH]c(N)nc21 [Metabolite 1-7, 2-amino-9-((2R,3R,4R,5R)-3-fluoro-4-hydroxy-5-(hydroxymethyl)-3-methyltetrahydrofuran-2-yl)-1,9-dihydro-6H-purin-6-one]
PK in cirrhotic compared with non-cirrhotic subjects (600 mg QD of Compound 2, Parts C/D vs Part E): similar; also recorded: comparable | time at which steady state was reached (NC subjects, based on metabolite 1-7 trough levels): after the third or fourth dose; also recorded: day 3 or 4 | higher trough upon reaching steady state (Part C): 50%-60% | time of peak formation after dosing (Part C): approximately 6 hours | dose proportionality of plasma exposure (peak and total) [1]: dose proportional from 150 to 300 mg and less than dose proportional from 300 mg to 600 mg | dose proportionality of trough levels [1]: mostly dose proportional | AUC Day 1 (AUC, for Metabolite 1-7) (Part C, NC GT1b, 150 mg/d Compound 2 QD, n=6): 800 ± 213 ng/mLxh | AUC Day 1 (AUC, for Metabolite 1-7) (Part C, NC GT1b, 300 mg/d Compound 2 QD, n=6): 1414 ± 220 ng/mLxh | AUC Day 1 (AUC, for Metabolite 1-7) (Part C, NC GT1b, 600 mg/d Compound 2 QD, n=6): 2204 ± 486 ng/mLxh | C24 h Day 1 (Part C, NC GT1b, 600 mg/d Compound 2 QD, n=6, trough after the first dose): 27.5 ± 5.21 ng/mL | AUC Day 1 (AUC, for Metabolite 1-7) (Part D, NC GT3, 600 mg/d Compound 2 QD, n=6): 2253 ± 595 ng/mLxh | C24 h Day 1 (Part D, NC GT3, 600 mg/d Compound 2 QD, n=6, trough after the first dose): 30.1 ± 10.9 ng/mL | AUC Day 1 (AUC, for Metabolite 1-7) (Part E, Child-Pugh A cirrhotic, 600 mg/d Compound 2 QD, n=6): 2625 ± 873 ng/mLxh | C24 h Day 1 (Part E, Child-Pugh A cirrhotic, 600 mg/d Compound 2 QD, n=6, trough after the first dose): 41.6 ± 12.9 ng/mL | steady state plasma trough level (cirrhotic patients, 600 mg of Compound 2): 45.7 ng/mL | AUC (human, plasma, 150 mg, AUC of metabolite 1-7, range for the dose, 150 mg Compound 2 QD 7 days (FIG. 7)): 397 to 1430 ng·h/mL | AUC (human, plasma, 300 mg, AUC of metabolite 1-7, range for the dose, 300 mg Compound 2 QD 7 days (FIG. 7)): 1300 to 2580 ng·h/mL | AUC (human, plasma, 600 mg, AUC of metabolite 1-7, range for the dose, 600 mg Compound 2 QD 7 days (FIG. 7)): 2250 to 5380 ng·h/mL | AUC (human, plasma, 600 mg, metabolite 1-7 exposure (AUC) achieved, 600 mg Compound 2 QD, all subjects, cirrhotic or non-cirrhotic): > 2000 ng·h/mL | concentration at 24 h (human, plasma, oral, 150 mg/d, Part C, NC GT1b, 150 mg/d Compound 2 QD, n=6, read-out: C24 h Day 1): 8.08 ± 3.48 ng/mL | Cmax (human, plasma, oral, 150 mg/d, Part C, NC GT1b, 150 mg/d Compound 2 QD, n=6, read-out: Cmax Day 1): 75.6 ± 15.4 ng/mL | concentration at 24 h (human, plasma, oral, 150 mg/d, steady state = mean of C24 at 72, 96, 120, 144 and 168 h, Part C, NC GT1b, 150 mg/d Compound 2 QD, n=6, read-out: C24 h SS): 12.8 ± 4.45 ng/mL | Cmax (human, plasma, oral, 150 mg/d, steady state, Part C, NC GT1b, 150 mg/d Compound 2 QD, n=6, read-out: Cmax SS): 81.1 ± 33.9 ng/mL | half-life (human, plasma, oral, 150 mg/d, steady state, Part C, NC GT1b, 150 mg/d Compound 2 QD, n=6, read-out: T1/2 SS (converted)): 12.5 h | Cmax (human, plasma, oral, 300 mg/d, Part C, NC GT1b, 300 mg/d Compound 2 QD, n=6, read-out: Cmax Day 1): 123 ± 16.6 ng/mL | concentration at 24 h (human, plasma, oral, 300 mg/d, steady state = mean of C24 at 72, 96, 120, 144 and 168 h, Part C, NC GT1b, 300 mg/d Compound 2 QD, n=6, read-out: C24 h SS): 26.1 ± 7.56 ng/mL | Cmax (human, plasma, oral, 300 mg/d, steady state, Part C, NC GT1b, 300 mg/d Compound 2 QD, n=6, read-out: Cmax SS): 220 ± 203 ng/mL | half-life (human, plasma, oral, 300 mg/d, steady state, Part C, NC GT1b, 300 mg/d Compound 2 QD, n=6, read-out: T1/2 SS (converted)): 24.5 h | Cmax (human, plasma, oral, 600 mg/d, Part C, NC GT1b, 600 mg/d Compound 2 QD, n=6, read-out: Cmax Day 1): 197 ± 57.1 ng/mL | concentration at 24 h (human, plasma, oral, 600 mg/d, Part C, NC GT1b, 600 mg/d Compound 2 QD, n=6, trough after the first dose, read-out: C24 h Day 1): 27.5 ng/mL | Cmax (human, plasma, oral, 600 mg/d, Part D, NC GT3, 600 mg/d Compound 2 QD, n=6, read-out: Cmax Day 1): 195 ± 42.9 ng/mL | concentration at 24 h (human, plasma, oral, 600 mg/d, Part D, NC GT3, 600 mg/d Compound 2 QD, n=6, trough after the first dose, read-out: C24 h Day 1): 30.1 ng/mL | Cmax (human, plasma, oral, 600 mg/d, Part E, Child-Pugh A cirrhotic, 600 mg/d Compound 2 QD, n=6, read-out: Cmax Day 1): 201 ± 68.1 ng/mL | concentration at 24 h (human, plasma, oral, 600 mg/d, Part E, Child-Pugh A cirrhotic, 600 mg/d Compound 2 QD, n=6, trough after the first dose, read-out: C24 h Day 1): 41.6 ng/mL | concentration at 24 h (human, plasma, oral, 600 mg/d, steady state = mean of C24 at 72, 96, 120, 144 and 168 h, Part C, NC GT1b, 600 mg/d Compound 2 QD, n=6, read-out: C24 h SS): 46.9 ± 15.5 ng/mL | concentration at 24 h (human, plasma, oral, 600 mg/d, steady state = mean of C24 at 72, 96, 120, 144 and 168 h, Part D, NC GT3, 600 mg/d Compound 2 QD, n=6, read-out: C24 h SS): 37.8 ± 11.4 ng/mL | concentration at 24 h (human, plasma, oral, 600 mg/d, steady state = mean of C24 at 72, 96, 120, 144 and 168 h, Part E, Child-Pugh A cirrhotic, 600 mg/d Compound 2 QD, n=6, read-out: C24 h SS): 69.9 ± 18.5 ng/mL | Cmax (human, plasma, oral, 600 mg/d, steady state, Part C, NC GT1b, 600 mg/d Compound 2 QD, n=6, read-out: Cmax SS): 233 ± 42.9 ng/mL | half-life (human, plasma, oral, 600 mg/d, steady state, Part C, NC GT1b, 600 mg/d Compound 2 QD, n=6, read-out: T1/2 SS (converted)): 28.9 h | Cmax (human, plasma, oral, 600 mg/d, steady state, Part D, NC GT3, 600 mg/d Compound 2 QD, n=6, read-out: Cmax SS): 263 ± 104 ng/mL | half-life (human, plasma, oral, 600 mg/d, steady state, Part D, NC GT3, 600 mg/d Compound 2 QD, n=6, read-out: T1/2 SS (converted)): 27.9 h | half-life (human, plasma, oral, 600 mg/d, steady state, Part E, Child-Pugh A cirrhotic, 600 mg/d Compound 2 QD, n=6, read-out: T1/2 SS (converted)): 24.4 h | Tmax (human, plasma, oral, 600 mg/d, steady state, Part E, Child-Pugh A cirrhotic, 600 mg/d Compound 2 QD, n=6, read-out: Tmax SS): 6 h | half-life (human, plasma, oral, Part C, read-out: half-life): 13 to 30 h | food effect on total and trough exposure (in vivo): No food effect | AUC SS (AUC, for Metabolite 1-7) (steady state, Part C, NC GT1b, 150 mg/d Compound 2 QD, n=6): 962 ± 409 ng/mLxh | AUC SS (AUC, for Metabolite 1-7) (steady state, Part C, NC GT1b, 300 mg/d Compound 2 QD, n=6): 1828 ± 453 ng/mLxh | AUC SS (AUC, for Metabolite 1-7) (steady state, Part C, NC GT1b, 600 mg/d Compound 2 QD, n=6): 2839 ± 572 ng/mLxh | AUC SS (AUC, for Metabolite 1-7) (steady state, Part D, NC GT3, 600 mg/d Compound 2 QD, n=6): 3117 ± 1048 ng/mLxh | AUC SS (AUC, for Metabolite 1-7) (steady state, Part E, Child-Pugh A cirrhotic, 600 mg/d Compound 2 QD, n=6): 3569 ± 1214 ng/mLxh | time at which steady state was reached (subjects with cirrhosis): day 5; also recorded: after the fifth dose
